{
  "source": "patent US20220040160A1",
  "about": "“COMBINATION OF HISTONE DEACETYLASE INHIBITOR AND IMMUNOTHERAPY” (The United States of America,as represented by the …, priority 2016, published 2022)",
  "key": {"[1]": {"tested_on": "LNCaP prostate carcinoma cells", "experiment": "Antigen-specific CTL lysis, overnight 111In-release assay", "assay_type": "cell-based, human", "conditions": "E:T=30:1", "description": "(§1) Vorinostat and entinostat were obtained from Selleck Chemicals. Adherent tumor cells in log-growth phase were exposed daily to vehicle (DMSO) or vorinostat at the indicated concentrations for 5 h, over 4 consecutive days. At the end of each treatment, cells were washed in fresh medium and returned to incubation at 37° C. with 5% CO2. Alternatively, cells were continuously exposed to vehicle (DMSO) or entinostat at the indicated concentrations for 72 h.\n(§2) Carcinoembryonic antigen (CEA)-specific CTLs recognize the CEA peptide epitope […] (CAP-1) (SEQ ID NO: 1) (Tsang et al., J. Natl. Cancer Inst., 87(13): 982-990 (1995)). Prostate-specific antigen (PSA)-specific CTLs recognize the PSA peptide epitope […] (SEQ ID NO: 2) (Correale et al., J. Natl. Cancer Inst., 89(4): 293-300 (1997)). The mucin-1 (MUC-1)-specific CD8^+ CTL line, designated MUC-1 CTL, recognizes the MUC-1 peptide epitope […] (SEQ ID NO: 3) (Tsang et al., Clin. Cancer Res., 10(6): 2139-2149 (2004)). Brachyury-specific CTLs recognize the brachyury peptide epitope […] (T-p2) (SEQ ID NO: 4) (Tucker et al., Cancer Immunol. Immunother., 63(12): 1307-1317 (2014)). All T-cell lines were HLA-A2-restricted.\nCarcinoma cells exposed to vorinostat, entinostat, or vehicle (DMSO) were labeled with ^111In prior to being used as targets for direct lysis by effector CTLs at an effector-to-target ratio of 30:1 in a standard overnight cytotoxicity ^111In-release assay (Gameiro et al., Oncoimmunology, 3: e28643 (2014)).\nThe effect of clinically relevant vorinostat exposure on prostate and breast carcinoma cells' sensitivity to antigen-specific CTL-mediated lysis was examined. LNCaP and MDA-MB-231 were exposed to vorinostat or to vehicle as before, prior to being used as targets for antigen-specific CTL lysis, using CEA-, brachyury-, MUC-1-, or PSA-specific CD8^+ T cells as effector cells."}, "[2]": {"tested_on": "ER stress response element (ERSE)", "experiment": "Luciferase ER stress reporter assay in LNCaP clones", "assay_type": "cell-based, human", "conditions": "designated concentrations", "description": "as §1"}, "[3]": {"tested_on": "prostate and breast carcinoma cells", "experiment": "NK cell mediated lysis of carcinoma cells", "assay_type": "cell-based, human", "conditions": "after clinically relevant exposure", "description": "Human prostate (LNCaP), breast (MDA-MB-231), and lung (H460) carcinoma cells were exposed to vorinostat or vehicle (DMSO) and the percent lysis was determined. At the end of treatment, the cells were used as targets in a lysis assay wherein NK cells isolated from human PBMCs were used as effectors (varying E:T ratios as indicated in FIG. 7)."}, "[4]": {"tested_on": "non-small cell lung cancer (NSCLC)", "conditions": "entinostat given with the DNMT inhibitor azacitidine; subsequent therapies given immediately after epigenetic therapy; cited from earlier work"}, "[5]": {"tested_on": "HDAC enzymes (isoforms 1-11)", "experiment": "HDAC activity assay (EpiQuik colorimetric kit) on nuclear extracts of treated carcinoma cells", "assay_type": "cell-based, human", "conditions": "1 or 3 μM, 5 h daily over 4 days, at 96 h, vs DMSO", "description": "(§3) Vorinostat and entinostat were obtained from Selleck Chemicals.\nChanges in the nuclear enzyme activity of HDAC isoforms 1-11 following vorinostat treatment of MDA-MB-231 and LNCaP cells were determined using the colorimetric EpiQuik HDAC Activity/Inhibition Assay Kit (Epigentek). Briefly, 10 μg of extracted nuclear HDAC proteins were incubated with acetylated HDAC substrate for 90 min at 37° C. HDAC deacetylated products were detected following sequential incubation with capture and detection antibodies, according to the manufacturer's specifications.\n(§4) Therefore, the in vitro effect of clinically relevant exposure of human prostate (LNCaP) and breast (MDA-MB-231) carcinoma cells to vorinostat on the activity of HDAC enzymes (isoforms 1-11), cellular proliferation, and viability was examined. Tumor cells were exposed daily for 5 h to 1 μM or 3 μM vorinostat, or vehicle (DMSO) over 4 consecutive days, mimicking the range of vorinostat exposure (Cmax, AUC) attained in cancer patients after oral once daily intake of 400 mg (Iwamoto et al., Cancer Chemother. Pharmacol., 72(3): 493-508 (2013)). […] Vorinostat concentration of 3 μM was used for all subsequent experiments."}, "[6]": {"tested_on": "LNCaP prostate carcinoma cells", "experiment": "Cell growth and viability, trypan blue count / Live-Dead flow cytometry", "assay_type": "cell-based", "conditions": "1 or 3 μM, 5 h daily over 4 days", "description": "as §1\n(§5) Tumor cells were exposed to DMSO or vorinostat as described above. Cells were harvested daily and viable cells were counted by trypan blue exclusion using a Cellometer Auto T4 automated cell counter (Nexcelom Bioscience). Cellular viability was confirmed by flow cytometry using Live/Dead exclusion, according to manufacturer's instructions (Invitrogen).\nas §4"}, "[7]": {"tested_on": "MDA-MB-231 breast carcinoma cells", "experiment": "Cell growth and viability, trypan blue count / Live-Dead flow cytometry", "assay_type": "cell-based", "conditions": "1 or 3 μM, 5 h daily over 4 days", "description": "as §1, §5, §4"}, "[8]": {"tested_on": "MDA-MB-231 breast carcinoma cells", "conditions": "brachyury-specific CTL, 3 μM", "description": "as §1\nas §2, with “(T-p2) (SEQ ID NO: 4) (Tucker et al., Cancer Immunol. Immunother., 63(12): 1307-1317 (2014)). All T-cell lines were HLA-A2-restricted.” left out\nSilencer® siRNA and negative control siRNA were used to silence HDAC1, ERN1, and PERK in MDA-MB-231 carcinoma cells, according to the manufacturer's instructions (Life Technologies). […] Detection and quantification of band intensity were performed with the Odyssey Infrared Imaging System (LI-COR Biotechnology). […]"}, "[9]": {"tested_on": "HLA-A2 negative AsPC-1 pancreatic carcinoma cells", "experiment": "Antigen-specific CTL lysis, HLA-restriction control", "assay_type": "cell-based, human", "conditions": "cells exposed to vehicle or vorinostat 3 μM", "description": "as §1\nas §2, with “HLA-A2-restricted. […]” for “HLA-A2-restricted.”"}, "[10]": {"tested_on": "antigen processing machinery (APM) components", "experiment": "Flow cytometry of APM components and surface markers in MDA-MB-231 cells", "assay_type": "cell-based, human", "description": "as §3\nCell-surface and intracytoplasmic staining was performed as previously described (Ogino et al., J. Immunol. Methods, 278(1-2): 33-44 (2003)). Surface staining of tumor cells was performed using the primary labeled monoclonal antibodies HLA-A2-FITC, ICAM-1 (CD54)-PE, CEA (CD66)-FITC, MUC-1 (CD227)-FITC, and the appropriate isotype-matched controls (BD Biosciences). For intracellular analysis of antigen processing machinery (APM) components, mouse IgG1 (MK2-23) isotype control, LMP2 (SY-1)-, LMP7 (HB2)-, TAP-1 (NOB1)-, calnexin (TO-5)-, β2-microglobulin (L368), and tapasin (TO-3)-specific monoclonal antibodies were developed and characterized as described (Bandoh et al., Tissue Antigens, 66(3): 185-194 (2005); Ogino et al., Tissue Antigens, 62(5): 385-393 (2003); and Wang et al., J. Immunol. Methods, 299(1-2): 139-151 (2005)). Cellular fluorescence of 3×10^4 cells was examined on a FACSCalibur flow cytometer using CellQuest software (BD Biosciences).\nCTL killing of tumor targets requires T-cell recognition of specific major histocompatibility complex (MHC) Class I/CD8^+ restricted epitope complexes on the surface of tumor cells, an event determined by the cooperative interactions of multiple APM components. […] To test this hypothesis, MDA-MB-231 carcinoma cells were exposed to vorinostat or to vehicle as before. At the end of treatment, cells were examined by flow cytometry for intracellular expression of 6 APM components (FIG. 3)."}, "[11]": {"tested_on": "H460 lung carcinoma cells", "experiment": "Avelumab (anti-PD-L1) mediated ADCC with NK effectors", "assay_type": "cell-based, human", "conditions": "3 μM, 5 h daily, 4 days, anti-PD-L1 vs isotype control", "description": "Lung (H460) and pancreatic (AsPC-1) carcinoma cells were exposed daily for 5 h to vorinostat (3 uM, black circles and bars) or DMSO (open circles and bars) for 4 consecutive days prior to being used as targets PDL-1-mediated ADCC. Upper panel: cell-surface expression of PDL1 in carcinoma targets. Middle panel: NK lysis in the presence of anti-PDL1 or isotype control Ab. Lower panel: H460 lysis in the presence of anti-PDL1 or isotype control antibodies using NK effector cells pre-incubated with anti-CD16 mAb. Results are presented as mean±S.E.M. from 3 replicate wells and are representative of 2-4 independent experiments. Asterisks denote statistical significance relative to controls (2-way ANOVA).\nHuman lung (H460) carcinoma cells were exposed to vorinostat and isotype control, anti-CD16, or anti-PD-L1 (avelumab)."}, "[12]": {"conditions": "MDA-MB-231, 3 μM, 96 h, intracellular flow cytometry"}},
  "data": [
    {"smiles": "Nc1ccccc1NC(=O)c1ccc(CNC(=O)OCc2cccnc2)cc1", "note": "[entinostat]", "values": [
      {"measurement": "sensitivity to CTL-mediated killing (PSA-specific CTL)", "setting": "[1]; entinostat 500 nM, similar to vorinostat 3 μM, P<0.05", "result": "increased sensitivity"},
      {"measurement": "activation of ERSE (firefly/renilla luciferase ratio normalized to DMSO)", "setting": "[2]; entinostat continuous exposure 72 h", "result": "activated ERSE in an exposure-dependent manner"},
      {"measurement": "sensitivity to NK cell mediated lysis in vitro", "setting": "[3]", "result": "more sensitive"},
      {"measurement": "patients with major objective responses to subsequent anticancer therapies", "setting": "[4]", "result": "4 out of 19"}
    ]},
    {"smiles": "O=C(CCCCCCC(=O)Nc1ccccc1)NO", "note": "[vorinostat]", "values": [
      {"measurement": "HDAC activity", "setting": "[5]; LNCaP prostate carcinoma cells, P=0.0006", "result": "significantly decreased"},
      {"measurement": "HDAC activity", "setting": "[5]; MDA-MB-231 breast carcinoma cells, P=0.0046", "result": "significantly decreased"},
      {"measurement": "cellular viability", "setting": "[6]; at 96 h", "result": "no significant effect"},
      {"measurement": "cellular proliferation", "setting": "[6]; vs vehicle, P<0.0001", "result": "significantly decreased"},
      {"measurement": "cellular viability", "setting": "[7]; at 96 h", "result": "no significant effect"},
      {"measurement": "cellular proliferation", "setting": "[7]; vs vehicle, P<0.0001", "result": "significantly decreased"},
      {"measurement": "sensitivity to CTL-mediated lysis targeting MUC-1", "setting": "[1]; 3 μM, 5 h daily, 4 days, P<0.0001", "result": "significantly more sensitive"},
      {"measurement": "sensitivity to CTL-mediated lysis targeting brachyury", "setting": "[1]; 3 μM, 5 h daily, 4 days, P=0.0004", "result": "significantly more sensitive"},
      {"measurement": "sensitivity to CTL-mediated lysis targeting PSA", "setting": "[1]; 3 μM, 5 h daily, 4 days, P=0.0011", "result": "significantly more sensitive"},
      {"measurement": "sensitivity to CTL-mediated lysis targeting CEA", "setting": "[1]; 3 μM, 5 h daily, 4 days, P=0.002", "result": "significantly more sensitive"},
      {"measurement": "CTL lysis relative to vehicle control", "setting": "[8]; HDAC1-silenced cells", "result": "did not further increase"},
      {"measurement": "increase in CTL sensitivity relative to vehicle controls", "setting": "[8]; control siRNA, E:T 30:1, P=0.0024", "result": 2, "unit": "fold"},
      {"measurement": "CTL lysis of HLA-A2 negative targets", "setting": "[9]", "result": "absence of significant lysis"},
      {"measurement": "increase in Tapasin expression", "setting": "[10]; [12]", "result": 22, "unit": "%"},
      {"measurement": "increase in expression of LMP2", "setting": "[10]; [12]", "result": "≥ 25", "unit": "%"},
      {"measurement": "increase in expression of LMP7", "setting": "[10]; [12]", "result": "≥ 25", "unit": "%"},
      {"measurement": "increase in expression of TAP1", "setting": "[10]; [12]", "result": "≥ 25", "unit": "%"},
      {"measurement": "increase in expression of calnexin", "setting": "[10]; [12]", "result": "≥ 25", "unit": "%"},
      {"measurement": "increase in expression of β2-microglobulin", "setting": "[10]; [12]", "result": "≥ 25", "unit": "%"},
      {"measurement": "expression of CEA on the surface of tumor cells", "setting": "[10]; upon exposure to vorinostat", "result": "Increased expression"},
      {"measurement": "expression of HLA class I antigens on the surface of tumor cells", "setting": "[10]; upon exposure to vorinostat", "result": "Increased expression"},
      {"measurement": "expression of ICAM-1 on the surface of tumor cells", "setting": "[10]; upon exposure to vorinostat", "result": "Increased expression"},
      {"measurement": "expression of MUC-1 on the surface of tumor cells", "setting": "[10]; upon exposure to vorinostat", "result": "Increased expression"},
      {"measurement": "activation of ERSE (firefly/renilla luciferase ratio normalized to DMSO)", "setting": "[2]; vorinostat 5 h daily for 4 days", "result": "activated ERSE in a dose-dependent manner"},
      {"measurement": "sensitivity to NK cell mediated lysis in vitro", "setting": "[3]", "result": "more sensitive"},
      {"measurement": "avelumab-mediated ADCC", "setting": "[11]", "result": "increases"}
    ]}
  ]
}
